The subject of this assay is BDF1 mice, P388 leukemia ip, median survival T/C. Kind of assay: NCI In Vivo Anticancer Drug Screen. Data for tumor model P388 Leukemia (intraperitoneal) in B6D2F1 (BDF1) mice. The following applies: endpoint: median survival time, higher = longer survival. In outline: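 In tumour-bearing mice, survival after compound treatment is set against the vehicle group and given as a quotient.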

The mark [1] stands for this setting: dose: 12.5 mg/kg/injection, schedule: Q01DX009 (ip), vehicle: saline with Tween-80.
[2] abbreviates: dose: 50.0 mg/kg/injection, schedule: Q01DX009 (ip), vehicle: saline with Tween-80.
Setting [3] is: dose: 100.0 mg/kg/injection, schedule: Q01DX009 (ip), vehicle: saline with Tween-80.
[4] abbreviates: dose: 100.0 mg/kg/injection, schedule: Q04DX003 (ip), vehicle: saline with Tween-80.
[5] abbreviates: dose: 200.0 mg/kg/injection, schedule: Q01DX009 (ip), vehicle: saline with Tween-80.
The mark [6] stands for this setting: dose: 200.0 mg/kg/injection, schedule: Q04DX003 (ip), vehicle: saline with Tween-80.
Where [7] appears, read: dose: 87.5 mg/kg/injection, schedule: Q01DX009 (ip), vehicle: saline with Tween-80.
[8] abbreviates: dose: 175.0 mg/kg/injection, schedule: Q01DX009 (ip), vehicle: saline with Tween-80.
The mark [9] stands for this setting: dose: 350.0 mg/kg/injection, schedule: Q01DX009 (ip), vehicle: saline with Tween-80.
[10] abbreviates: dose: 25.0 mg/kg/injection, schedule: Q01DX009 (ip), vehicle: saline.
Where [11] appears, read: dose: 50.0 mg/kg/injection, schedule: Q04DX003 (ip), vehicle: saline with Tween-80.

Several values for one entry are separate records, joined by “and”; a condition that tells them apart may be missing. Identical values can stand only once. Toxic doses and inconclusive results are not listed.

For `CC1CCC(NC(=O)N(CCCl)N=O)CC1` (centres undefined), the T/C was 97 % of control (dose: 0.66 mg/kg/injection, schedule: Q01DX009 (ip), vehicle: Klucel (hydroxypropylcellulose) (HPC)); 107 % of control (dose: 0.99 mg/kg/injection, schedule: Q01DX009 (ip), vehicle: Klucel (hydroxypropylcellulose) (HPC)); 177 % of control (dose: 1.5 mg/kg/injection, schedule: Q01DX009 (ip), vehicle: Klucel (hydroxypropylcellulose) (HPC)); 154 % of control (dose: 3.1 mg/kg/injection, schedule: Q04DX003 (ip), vehicle: Klucel (hydroxypropylcellulose) (HPC)); 180 % of control (dose: 3.6 mg/kg/injection, schedule: Q01DX009 (ip), vehicle: Klucel (hydroxypropylcellulose) (HPC)); 172 % of control (dose: 4.7 mg/kg/injection, schedule: Q04DX003 (ip), vehicle: Klucel (hydroxypropylcellulose) (HPC)). In addition, the T/C by setting is: (dose: 5.0 mg/kg/injection, schedule: Q04DX002 (ip), vehicle: other) 168 % of control; (dose: 7.2 mg/kg/injection, schedule: Q04DX003 (ip), vehicle: saline) 190 % of control; (dose: 8.3 mg/kg/injection, schedule: Q01DX009 (ip), vehicle: Klucel (hydroxypropylcellulose) (HPC)) 250 % of control; (dose: 9.4 mg/kg/injection, schedule: Q04DX003 (ip), vehicle: saline with Tween-80) 113 % of control; (dose: 10.0 mg/kg/injection, schedule: Q01DX001 (ip), vehicle: alcohol) 119 % of control; (dose: 10.0 mg/kg/injection, schedule: Q04DX002 (ip), vehicle: other) 194 % of control. For the same compound, the T/C is, setting by setting: (dose: 10.0 mg/kg/injection, schedule: Q04DX003 (ip), vehicle: saline with Tween-80) 209 % of control; (dose: 10.0 mg/kg/injection, schedule: Q04DX003 (ip), vehicle: saline) 225 % of control; (dose: 11.0 mg/kg/injection, schedule: Q04DX003 (ip), vehicle: saline with Tween-80) 272 % of control; (dose: 12.5 mg/kg/injection, schedule: Q01DX009 (ip), vehicle: Klucel (hydroxypropylcellulose) (HPC)) 300 % of control and 120 % of control; (dose: 15.0 mg/kg/injection, schedule: Q04DX003 (ip), vehicle: saline with Tween-80) 241 % of control and 322 % of control and 212 % of control; (dose: 16.0 mg/kg/injection, schedule: Q01DX001 (ip), vehicle: saline with Tween-80) 322 % of control. For the same compound, the T/C is, setting by setting: (dose: 16.0 mg/kg/injection, schedule: Q04DX003 (ip), vehicle: saline with Tween-80) 545 % of control; (dose: 16.5 mg/kg/injection, schedule: Q04DX003 (ip), vehicle: saline) 272 % of control; (dose: 18.0 mg/kg/injection, schedule: Q01DX009 (ip), vehicle: Klucel (hydroxypropylcellulose) (HPC)) 110 % of control; (dose: 18.75 mg/kg/injection, schedule: Q01DX009 (ip), vehicle: Klucel (hydroxypropylcellulose) (HPC)) 100 % of control; (dose: 20.0 mg/kg/injection, schedule: Q04DX002 (ip), vehicle: other) 247 % of control; (dose: 20.0 mg/kg/injection, schedule: Q04DX003 (ip), vehicle: saline with Tween-80) 258 % of control and 294 % of control and 482 % of control. Further, the T/C is 545 % of control (dose: 24.0 mg/kg/injection, schedule: Q04DX003 (ip), vehicle: saline with Tween-80); 115 % of control (dose: 25.0 mg/kg/injection, schedule: Q01DX009 (ip), vehicle: Klucel (hydroxypropylcellulose) (HPC)); 300 % of control (dose: 25.0 mg/kg/injection, schedule: Q04DX003 (ip), vehicle: alcohol); 240 % of control and 272 % of control (dose: 25.0 mg/kg/injection, schedule: Q04DX003 (ip), vehicle: saline); 446 % of control (dose: 30.0 mg/kg/injection, schedule: Q04DX003 (ip), vehicle: saline with Tween-80); 90 % of control and 218 % of control (dose: 37.5 mg/kg/injection, schedule: Q04DX003 (ip), vehicle: saline). In addition, the T/C reads like this: (dose: 40.0 mg/kg/injection, schedule: Q04DX002 (ip), vehicle: other) 117 % of control; (dose: 50.0 mg/kg/injection, schedule: Q04DX003 (ip), vehicle: alcohol) 115 % of control; (dose: 54.0 mg/kg/injection, schedule: Q01DX001 (ip), vehicle: saline with Tween-80) 499 % of control.
With `O=[N+]([O-])c1ccc(OCCNS(=O)(=O)c2cccc(S(=O)(=O)F)c2)c(Cl)c1`, the T/C reads like this: under setting [1], 110 % of control; under setting [2], 110 % of control; under setting [3], 94 % of control; under setting [4], 99 % of control; under setting [5], 105 % of control; under setting [6], 99 % of control. In addition, the T/C (dose: 400.0 mg/kg/injection, schedule: Q01DX009 (ip), vehicle: saline with Tween-80) is 88 % of control and the T/C (dose: 400.0 mg/kg/injection, schedule: Q04DX003 (ip), vehicle: saline with Tween-80) was 108 % of control.
Consider `O=C1c2ccccc2C(=O)N1c1ccc(S(=O)(=O)c2ccc(N3C(=O)c4ccccc4C3=O)cc2)cc1`, for which the T/C runs as follows: under setting [7], 104 % of control; under setting [8], 100 % of control; under setting [9], 98 % of control.
Turning to `NC(Cc1ccccc1Cl)C(=O)O` (centres undefined), the T/C is, setting by setting: under setting [1], 86 % of control; (dose: 25.0 mg/kg/injection, schedule: Q01DX009 (ip), vehicle: saline with Tween-80) 101 % of control; under setting [10], 122 % of control; under setting [2], 107 % of control; (dose: 50.0 mg/kg/injection, schedule: Q01DX009 (ip), vehicle: saline) 116 % of control; under setting [3], 102 % of control. The T/C under setting [5] is 94 % of control.
Regarding `Cc1cc(C)cc(C(C)C)c1`, the T/C runs as follows: under setting [2], 101 % of control; under setting [3], 116 % of control; under setting [5], 122 % of control.
In the case of `CN1CCC(C(c2ccccc2)c2ccccc2)C1` (centres undefined), the T/C (dose: 50.0 mg/kg/injection, schedule: Q01DX009 (ip), vehicle: Klucel (hydroxypropylcellulose) (HPC)) was 109 % of control.
On to `Cc1cc(C(=O)NN)nn1CCO`, for which the T/C runs as follows: under setting [7], 89 % of control; under setting [8], 88 % of control; under setting [9], 114 % of control.
For `COc1ccc(CC2=NCCc3cc(OC)c(OC)cc32)cc1OC`, the T/C (dose: 12.5 mg/kg/injection, schedule: Q01DX009 (ip), vehicle: saline) was 153 % of control and the T/C under setting [10] is 99 % of control.
For `CSC(=S)N/N=C(\C)c1ccccn1`, the T/C by setting is: (dose: 25.0 mg/kg/injection, schedule: Q04DX003 (ip), vehicle: saline with Tween-80) 92 % of control; under setting [11], 99 % of control; under setting [4], 106 % of control.
As to `S=P(N1CC1)(N1CC1)N1CC1`, the T/C is, setting by setting: (dose: 0.19 mg/kg/injection, schedule: Q01DX009 (ip), vehicle: saline) 114 % of control; (dose: 0.75 mg/kg/injection, schedule: Q01DX010 (ip), vehicle: saline) 90 % of control; (dose: 1.0 mg/kg/injection, schedule: Q01DX001 (oral), vehicle: saline) 109 % of control; (dose: 1.5 mg/kg/injection, schedule: Q01DX009 (ip), vehicle: saline) 121 % of control; (dose: 1.5 mg/kg/injection, schedule: Q01DX010 (ip), vehicle: saline) 90 % of control and 109 % of control; (dose: 3.0 mg/kg/injection, schedule: Q01DX009 (ip), vehicle: saline) 112 % of control. For the same compound, the T/C was 91 % of control and 93 % of control and 206 % of control (dose: 6.0 mg/kg/injection, schedule: Q01DX009 (ip), vehicle: saline); 109 % of control and 110 % of control (dose: 6.0 mg/kg/injection, schedule: Q01DX010 (ip), vehicle: saline); 111 % of control (dose: 12.0 mg/kg/injection, schedule: Q01DX009 (ip), vehicle: saline).
Take `CN1CCC(C(O)c2ccccc2)CC1` (centres undefined): the T/C was 105 % of control (dose: 100.0 mg/kg/injection, schedule: Q01DX001 (ip), vehicle: Klucel (hydroxypropylcellulose) (HPC)) and 105 % of control (dose: 200.0 mg/kg/injection, schedule: Q01DX001 (ip), vehicle: Klucel (hydroxypropylcellulose) (HPC)).
Take `O=[N+]([O-])c1ccc(Cl)nc1`: under setting [5], the T/C was 95 % of control.
On to `Cc1cc(NC(=O)c2ccccc2)c(Cl)cc1N`, for which the T/C is, setting by setting: under setting [11], 95 % of control; under setting [4], 95 % of control; under setting [6], 95 % of control.
Consider `CC(=O)CC(C)=O.CC(=O)CC(C)=O.Cc1nccn1C.O=N[O-].[Co]`, for which the T/C (dose: 100.0 mg/kg/injection, schedule: Q04DX002 (ip), vehicle: saline with Tween-80) was 105 % of control.
